For test [1], the system named is Septoria tritici. The experiment in a line: Example F-C: in vivo 5 days preventive Septoria tritici test (wheat). The conditions noted are these: Zymoseptoria tritici, 504 h, inoculated 5 days after spraying, evaluated 21 days after inoculation, read-out: Efficacy in % Example F-C. As for the experimental part: Example F: In Vivo Septoria tritici Test (Wheat); Comparison of Pyridinyloxy-Pyridyl Compounds According to the Invention Vs. Compounds Known from WO-A 2010/146116 [table] To produce a suitable preparation of active compound, 1 part by weight of active compound or active compound combination is mixed with the stated amounts of solvent and emulsifier, and the concentrate is diluted with water to the desired concentration. Example F-C: In Vivo 5 Days Preventive Septoria tritici Test (Wheat) To test for preventive and long-lasting activity, young plants are sprayed with a preparation of active compound or active compound combination at the stated rate of application. After the spray coating has been dried, the plants are placed in the greenhouse at a temperature of approximately 15° C. and a relative atmospheric humidity of approximately 80%. 5 days later the plants are sprayed with a spore suspension of Septoria tritici. The plants remain for 48 hours in an incubation cabinet at approximately 20° C. and a relative atmospheric humidity of approximately 100% and afterwards for 60 hours at approximately 15° C. in a translucent incubation cabinet at a relative atmospheric humidity of approximately 100%. Then the plants are placed in the greenhouse at a temperature of approximately 15° C. and a relative atmospheric humidity of approximately 80%. The test is evaluated 21 days after the inoculation. 0% means an efficacy which corresponds to that of the untreated control, while an efficacy of 100% means that no disease is observed.

The test system of test [2] is Septoria tritici. The experiment in a line: Example F-A: in vivo preventive Septoria tritici test (wheat). The conditions noted are these: Zymoseptoria tritici, 504 h, evaluated 21 days after inoculation, read-out: Efficacy in % Example F-A. As for the experimental part:
Example F: In Vivo Septoria tritici Test (Wheat); Comparison of Pyridinyloxy-Pyridyl Compounds According to the Invention Vs. Compounds Known from WO-A 2010/146116 [table] To produce a suitable preparation of active compound, 1 part by weight of active compound or active compound combination is mixed with the stated amounts of solvent and emulsifier, and the concentrate is diluted with water to the desired concentration. Example F-A: In Vivo Preventive Septoria tritici Test (Wheat) To test for preventive activity, young plants are sprayed with the preparation of active compound or active compound combination at the stated rate of application. After the spray coating has been dried, the plants are sprayed with a spore suspension of Septoria tritici. The plants remain for 48 hours in an incubation cabinet at approximately 20° C. and a relative atmospheric humidity of approximately 100% and afterwards for 60 hours at approximately 15° C. in a translucent incubation cabinet at a relative atmospheric humidity of approximately 100%. The plants are placed in the greenhouse at a temperature of approximately 15° C. and a relative atmospheric humidity of approximately 80%. The test is evaluated 21 days after the inoculation. 0% means an efficacy which corresponds to that of the untreated control, while an efficacy of 100% means that no disease is observed.

Test [3] concerns Septoria tritici. The experiment in a line: Example F-B: in vivo curative Septoria tritici test (wheat). To be noted: Zymoseptoria tritici, 504 h, sprayed 48 hours after inoculation, evaluated 21 days after inoculation, read-out: Efficacy in % Example F-B. How it is done:
Example F: In Vivo Septoria tritici Test (Wheat); Comparison of Pyridinyloxy-Pyridyl Compounds According to the Invention Vs. Compounds Known from WO-A 2010/146116 [table] To produce a suitable preparation of active compound, 1 part by weight of active compound or active compound combination is mixed with the stated amounts of solvent and emulsifier, and the concentrate is diluted with water to the desired concentration. Example F-B: In Vivo Curative Septoria tritici Test (Wheat) To test for curative activity, young plants are inoculated with a spore suspension of Septoria tritici and remain for 48 hours in an incubation cabinet at a temperature of approximately 20° C. and a relative atmospheric humidity of approximately 100%. 48 hours after the incubation, the plants are sprayed with the preparation of active compound or active compound combination at the stated rate of application. After application the plants remain for 60 hours at a temperature of approximately 15° C. in a translucent incubation cabinet at a relative atmospheric humidity of approximately 100%. Afterwards, the plants are placed in the greenhouse at a temperature of approximately 15° C. and a relative atmospheric humidity of approximately 80%. The test is evaluated 21 days after the inoculation. 0% means an efficacy which corresponds to that of the untreated control, while an efficacy of 100% means that no disease is observed.

The structures appear in SMILES notation.

Consider `Clc1ccc(Oc2cc(Cl)c(C3(Cn4cncn4)OCCO3)cn2)cc1` [reference compound], for which the pest or weed control at 500 ppm in the test with Septoria tritici [1] was found to be 80%; in the test on Septoria tritici [2] it was 89%; in the test on Septoria tritici [3] it was 89%.

Values taken from patent US20200017467A1, “NOVEL TRIAZOLE DERIVATIVES” (BAYER CROPSCIENCE AKTIENGESELLSCHAFT, priority 2017, published 2020).
